Test results as given in the supplement of paper PMC11451515.

What was measured:
Settings in all cases: 48 h
NOMO1 [1] = assay: AUC of viability dose-response curve (% viability x log10 dose units); higher = less sensitive
Procedure, shortened: (§1)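 In 1536-well plates, leukemia cells adapted to each medium (500 or 1000 cells/well) were exposed for 48 h at 37°C to library compounds in DMSO across 11 threefold doses, 47 μM down to 0.79 nM. Viability was read by CellTiter-Glo One luminescence and normalised per plate to DMSO and cell-free wells. A four-parameter log-logistic fit over log10 doses was integrated by trapezoidal rule. This yielded the area under the curve, with over-full-viability curves scaled and quality-control failures dropped.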

P12-Ichikawa [2] = assay: as above
Procedure, shortened: as §1

SEM cells [3] = assay: as above
Procedure, shortened: as §1

NOMO1 [4] = assay: cell viability relative to DMSO control; higher = less cytotoxic
Procedure, shortened: (§2)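 Before seeding, each leukemia line was adapted for at least four passages in each medium. NOMO1 or SEM cells (500 cells/well) and P12-Ichikawa cells (1000 cells/well) went into 1536-well plates at 5 μl, then received library compounds in DMSO by pin dosing across 11 threefold concentrations, 47 μM to 0.79 nM. Readout was CellTiter-Glo One luminescence after 48 h at 37°C, and viability is given as a per-plate percentage of DMSO wells, with cell-free wells as background.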

P12-Ichikawa [5] = assay: as above
Procedure, shortened: as §2

SEM cells [6] = assay: as above
Procedure, shortened: as §2

CC(C)(N)c1ccc(-c2nc3ccccc3nc2-c2ccccc2)cc1
AUC of viability dose-response curve
Settings	NOMO1 [1]	P12-Ichikawa [2]	SEM cells [3]
HPLM + 10% dialyzed FBS	177	168	196
RPMI 5 mM glucose + 10% FBS	220	224	145
RPMI 5 mM glucose + 10% dialyzed FBS	241	219	181

cell viability [%]
Settings	NOMO1 [4]	P12-Ichikawa [5]	SEM cells [6]
HPLM + 10% dialyzed FBS, 0.000781 µM	112	110	99.5
HPLM + 10% dialyzed FBS, 0.00234 µM	118	114	109
HPLM + 10% dialyzed FBS, 0.00702 µM	109	108	117
HPLM + 10% dialyzed FBS, 0.0211 µM	68.5	65.8	100
HPLM + 10% dialyzed FBS, 0.0632 µM	27.3	23.2	38.5
HPLM + 10% dialyzed FBS, 0.19 µM	22.3	10.3	15.5
HPLM + 10% dialyzed FBS, 0.569 µM	12.2	7.18	6.7
HPLM + 10% dialyzed FBS, 1.71 µM	8.51	5.6	6.11
HPLM + 10% dialyzed FBS, 5.12 µM	7.84	5.46	5.5
HPLM + 10% dialyzed FBS, 15.4 µM	5.77	4.51	3.11
HPLM + 10% dialyzed FBS, 46.1 µM	5.3	4.37	3.57
RPMI 5 mM glucose + 10% FBS, 0.000781 µM	96.1	96.3	110
RPMI 5 mM glucose + 10% FBS, 0.00234 µM	116	120	103
RPMI 5 mM glucose + 10% FBS, 0.00702 µM	112	109	93.7
RPMI 5 mM glucose + 10% FBS, 0.0211 µM	111	111	36.2
RPMI 5 mM glucose + 10% FBS, 0.0632 µM	69.6	84.4	12.4
RPMI 5 mM glucose + 10% FBS, 0.19 µM	14.8	18.8	7.19
RPMI 5 mM glucose + 10% FBS, 0.569 µM	14.1	10.2	5.88
RPMI 5 mM glucose + 10% FBS, 1.71 µM	6.53	6.88	5.02
RPMI 5 mM glucose + 10% FBS, 5.12 µM	11.9	6.89	4.24
RPMI 5 mM glucose + 10% FBS, 15.4 µM	4.8	4.41	2.31
RPMI 5 mM glucose + 10% FBS, 46.1 µM	5.53	3.11	3.42
RPMI 5 mM glucose + 10% dialyzed FBS, 0.000781 µM	102	108	99.5
RPMI 5 mM glucose + 10% dialyzed FBS, 0.00234 µM	106	117	106
RPMI 5 mM glucose + 10% dialyzed FBS, 0.00702 µM	108	111	101
RPMI 5 mM glucose + 10% dialyzed FBS, 0.0211 µM	113	114	86.3
RPMI 5 mM glucose + 10% dialyzed FBS, 0.0632 µM	78.7	68.8	17.5
RPMI 5 mM glucose + 10% dialyzed FBS, 0.19 µM	20.3	22.3	10
RPMI 5 mM glucose + 10% dialyzed FBS, 0.569 µM	27.9	13.9	6.06
RPMI 5 mM glucose + 10% dialyzed FBS, 1.71 µM	13.2	8.23	4.9
RPMI 5 mM glucose + 10% dialyzed FBS, 5.12 µM	19.3	7.24	4.26
RPMI 5 mM glucose + 10% dialyzed FBS, 15.4 µM	6.51	7.26	2.44
RPMI 5 mM glucose + 10% dialyzed FBS, 46.1 µM	8.7	4.8	3.2

CC[C@H]1OC(=O)[C@H](C)[C@@H](O[C@H]2C[C@@](C)(OC)[C@@H](O)[C@H](C)O2)[C@H](C)[C@@H](O[C@@H]2O[C@H](C)C[C@H](N(C)C)[C@H]2O)[C@](C)(OC)C[C@@H](C)C(=O)[C@H](C)[C@@H](O)[C@]1(C)O
AUC of viability dose-response curve
Settings	NOMO1 [1]	P12-Ichikawa [2]	SEM cells [3]
HPLM + 10% dialyzed FBS	405	435	452
RPMI 5 mM glucose + 10% FBS	440	443	461
RPMI 5 mM glucose + 10% dialyzed FBS	409	437	452

cell viability [%]
Settings	NOMO1 [4]	P12-Ichikawa [5]	SEM cells [6]
HPLM + 10% dialyzed FBS, 0.000781 µM	110	109	96.8
HPLM + 10% dialyzed FBS, 0.00234 µM	121	102	95.3
HPLM + 10% dialyzed FBS, 0.00702 µM	96.8	98	98.4
HPLM + 10% dialyzed FBS, 0.0211 µM	105	98.7	98.4
HPLM + 10% dialyzed FBS, 0.0632 µM	89.3	103	103
HPLM + 10% dialyzed FBS, 0.19 µM	92.2	96.7	91.7
HPLM + 10% dialyzed FBS, 0.569 µM	92.6	95.8	93.8
HPLM + 10% dialyzed FBS, 1.71 µM	90.9	93.2	97.3
HPLM + 10% dialyzed FBS, 5.12 µM	84.9	91.6	84.6
HPLM + 10% dialyzed FBS, 15.4 µM	88.3	93.5	92.7
HPLM + 10% dialyzed FBS, 46.1 µM	101	82.1	87.6
RPMI 5 mM glucose + 10% FBS, 0.000781 µM	103	94.3	97
RPMI 5 mM glucose + 10% FBS, 0.00234 µM	101	103	102
RPMI 5 mM glucose + 10% FBS, 0.00702 µM	99.5	98.6	96
RPMI 5 mM glucose + 10% FBS, 0.0211 µM	101	88.4	99
RPMI 5 mM glucose + 10% FBS, 0.0632 µM	97	96.3	103
RPMI 5 mM glucose + 10% FBS, 0.19 µM	105	98.5	106
RPMI 5 mM glucose + 10% FBS, 0.569 µM	84	90.8	105
RPMI 5 mM glucose + 10% FBS, 1.71 µM	92.9	89.8	95.8
RPMI 5 mM glucose + 10% FBS, 5.12 µM	81.5	86	90.4
RPMI 5 mM glucose + 10% FBS, 15.4 µM	79.2	84.2	93.4
RPMI 5 mM glucose + 10% FBS, 46.1 µM	81.2	89.6	84.7
RPMI 5 mM glucose + 10% dialyzed FBS, 0.000781 µM	86.3	93.2	105
RPMI 5 mM glucose + 10% dialyzed FBS, 0.00234 µM	87.5	98.5	111
RPMI 5 mM glucose + 10% dialyzed FBS, 0.00702 µM	83.1	96.3	111
RPMI 5 mM glucose + 10% dialyzed FBS, 0.0211 µM	92.6	88	101
RPMI 5 mM glucose + 10% dialyzed FBS, 0.0632 µM	93.8	94.8	110
RPMI 5 mM glucose + 10% dialyzed FBS, 0.19 µM	87.8	94.3	105
RPMI 5 mM glucose + 10% dialyzed FBS, 0.569 µM	79.7	90.5	117
RPMI 5 mM glucose + 10% dialyzed FBS, 1.71 µM	80.5	85.6	114
RPMI 5 mM glucose + 10% dialyzed FBS, 5.12 µM	84	90.8	82.4
RPMI 5 mM glucose + 10% dialyzed FBS, 15.4 µM	84.4	94.2	93
RPMI 5 mM glucose + 10% dialyzed FBS, 46.1 µM	83.4	81.2	83.2

NC(=O)c1cnccn1
AUC of viability dose-response curve
Settings	NOMO1 [1]	P12-Ichikawa [2]	SEM cells [3]
HPLM + 10% dialyzed FBS	464	463	462
RPMI 5 mM glucose + 10% FBS	471	465	461
RPMI 5 mM glucose + 10% dialyzed FBS	457	461	465

cell viability [%]
Settings	NOMO1 [4]	SEM cells [6]
HPLM + 10% dialyzed FBS, 0.000781 µM	105	104
HPLM + 10% dialyzed FBS, 0.00234 µM	120	116
HPLM + 10% dialyzed FBS, 0.00702 µM	147	117
HPLM + 10% dialyzed FBS, 0.0211 µM	133	106
HPLM + 10% dialyzed FBS, 0.0632 µM	140	120
HPLM + 10% dialyzed FBS, 0.19 µM	140	120
HPLM + 10% dialyzed FBS, 0.569 µM	143	123
HPLM + 10% dialyzed FBS, 1.71 µM	141	125
HPLM + 10% dialyzed FBS, 5.12 µM	145	119
HPLM + 10% dialyzed FBS, 15.4 µM	126	122
HPLM + 10% dialyzed FBS, 46.1 µM	148	118
RPMI 5 mM glucose + 10% FBS, 0.000781 µM	–	108
RPMI 5 mM glucose + 10% FBS, 0.00234 µM	–	112
RPMI 5 mM glucose + 10% FBS, 0.00702 µM	–	133
RPMI 5 mM glucose + 10% FBS, 0.0211 µM	–	105
RPMI 5 mM glucose + 10% FBS, 0.0632 µM	–	116
RPMI 5 mM glucose + 10% FBS, 0.19 µM	–	129
RPMI 5 mM glucose + 10% FBS, 0.569 µM	–	127
RPMI 5 mM glucose + 10% FBS, 1.71 µM	–	121
RPMI 5 mM glucose + 10% FBS, 5.12 µM	–	119
RPMI 5 mM glucose + 10% FBS, 15.4 µM	–	120
RPMI 5 mM glucose + 10% FBS, 46.1 µM	–	119
